Test results as given in patent publication US4971992A, “Carbonate derivatives of eseroline” (priority 1989, dated 1990).
Like-named read-outs stand apart in the source and are kept apart here.

System: 2-phenyl-1,4-benzoquinone-induced writhing
Assay: 2-phenyl-1,4-benzoquinone-induced writhing test in mice (analgesia)
Assay type: in vivo
Conditions: Mus musculus, read-out: Inhibition of Writhing ED50
Description: Compounds of the present invention are useful as analgesic agents due to their ability to alleviate pain in mammals. […] Exptl. Biol. Med. 95, 729 (1957)]. The analgesic activity of some of the compounds expressed in terms of the ED50 values for inhibition of writhing are given in TABLE I.

In the case of `CN1CC[C@@]2(C)c3cc(OC(=O)Oc4ccc(Cl)cc4)ccc3N(C)[C@@H]12.O=C(O)/C=C/C(=O)O` (relative stereo) [4-Chlorophenyl (3aS-cis)-1,2,3,3a,8,8a-hexahydro-1,3a,8-trimethylpyrrolo [2,3-b]indol-5-yl carbonate fumarate], the ED50 (sc, subcutaneous) was 0.74 mg/kg.

`CN1CC[C@@]2(C)c3cc(OC(=O)OC(C)(C)C)cc(Br)c3N(C)[C@@H]12` [(3aS-cis)-7-Bromo-1,2,3,3a,8,8a-hexahydro-1,3a,8-trimethylpyrrolo[2,3-b]indol-5-yl t-butyl carbonate sesquifumarate] gave an ED50 (oral) of 0.4 mg/kg and an ED50 (sc, subcutaneous) of 0.16 mg/kg.

`CN1CC[C@@]2(C)c3cc(O)ccc3N(C)[C@@H]12` [eseroline salicylate, reference compound] showed an ED50 (sc, subcutaneous) of 0.52 mg/kg.
